# Laboratory results reported in PMC9266561, “1,3-Benzodioxole Derivatives Improve the Anti-Tumor Efficiency of Arsenicals” (International Journal of Molecular Sciences, 2022).
# Where two headings read alike, the source gives them in different places.
# Legend:
# [1] = tested on: Molm-13; assay: cells; format: cell-based
# [2] = tested on: NB4; assay: cells; format: cell-based
# [3] = tested on: 4T1; assay: cells; format: cell-based
# [4] = tested on: HeLa; assay: cells; format: cell-based, human
# [5] = tested on: COS-7; assay: cells; format: cell-based, African green monkey
# [6] = tested on: PBMC; assay: cells; format: cell-based, rat
# [7] = tested on: cancer cells; assay: MTT assay, cancer cell lines taken together; format: cell-based; settings: all cancer cell lines
# Protocol: The bioactivity of all the synthetic compounds was evaluated by a MTT assay (Table 1, Tables S1 and S2) against two leukemia cell lines, Molm-13 and NB4; two solid tumor cell lines, HeLa (human cervix cell line) and 4T1 (breast cancer cell line); and two normal cell lines, COS-7 (African green monkey kidney cell line) and rat PBMC (peripheral blood mononuclear cell line).
# Cells were cultured in 96-well plates overnight, followed by adding 80 μL of a related medium containing compounds of different concentrations and dissolved in DMSO for 24 h or 48 h. Then, 40 μL of MTT (2.5 mg/mL) was added and the cells were incubated for another 4 h. The cells were then dissolved in 100 μL of 10% SDS solution or DMSO to release and dissolve the purple MTT products, followed by absorbance detection (BioTek, Winooski, VT, USA).
# [8] = tested on: TrxR; assay: Cellular TrxR activity of 4T1 cells; format: cell-based; settings: 12 h incubation
# [9] = tested on: 4T1 cells with TrxR knocked down; assay: MTT assay of 4T1 cells with TrxR siRNA knock-down; format: cell-based
# [10] = tested on: Trx system (TrxR1, Trx1, TrxR2, Trx2); assay: Transcription of Trx system genes in 4T1 cells; format: cell-based; settings: 24 h, 1IC50 and 1.5IC50
# Text: See the methods in previous work.
# [11] = tested on: 4T1 cells; assay: ROS level by DCFH-DA in 4T1 cells; format: cell-based
# Protocol: The 4T1 cells treated with the MAZ2 of 0.8 and 1.6 µM were seeded in 6-well plates for 3, 6, 9, 12, and 24 h. Then, the medium was removed and fresh medium with DCFH-DA (0.2 µM) was added, followed by 30 min of incubation. Next, cells were collected and washed twice with PBS. Data were collected by a C6 flow cytometer (BD Biosciences, Franklin Lakes, New Jersey, USA).
# The 4T1 cells treated with the MAZ2 of 0.8 and 1.6 µM were cultured in 1 cm dishes specially designed for confocal tests. Nine hours later, DCFH-DA was added for confocal tests.
# [12] = tested on: GSH; assay: GSH content; format: cell-based
# [13] = tested on: Molm-13 and 4T1 cells; assay: MDA content (lipid peroxidation); format: cell-based; settings: 6 and 12 h
# Protocol: The Molm-13 and 4T1 cells were cultured in 6-well plates for 6 and 12 h, followed by an MDA test according to the manufacturer’s instructions.
# [14] = tested on: Molm-13 cells; assay: Apoptosis assay by flow cytometry; format: cell-based; settings: 0.2, 0.3 and 0.4 µM, 24 h
# Protocol: The Molm-13 cells were cultured with 0.2, 0.3, and 0.4 µM MAZ2 for 24 h; then, the cells were collected and stained using annixin V-FITC and PE for 30 min. The separation lines were determined by single staining.
# [15] = tested on: 4T1 tumors; assay: 4T1 tumor syngeneic model in Balb/C mice; format: in vivo; settings: for average tumor weight reduced by: two administrations, day 26
# Protocol: To confirm the bioactivity of MAZ2 in vivo, the tumor growth inhibition in 4T1 tumor syngeneic models in Balb/C mice was investigated (Figure 4A). When tumors grew to about 100 mm^3, the mice were divided into three groups; namely, the control, 1 mg/kg of MAZ2, and 1.5 mg/kg of MAZ2. Either a vehicle or the MAZ2 was injected intraperitoneally once a week. […] Therefore, the experiments were terminated at day 26 after two administrations.
# (§1) The mice (BALB/c, female, 5 weeks), purchased from Hubei Provincial Laboratory Animal Public Service Center, were injected with 0.1 mL of 4T1 cells (1 × 10^6/mL) in the right haunch. After the tumor grew to approximately 100 mm^3, the mice were randomly divided into three groups: control (PBS:DMSO = 8:2), 1 mg/kg, and 1.5 mg/kg. The MAZ2 was administrated once a week (i.p.) for two doses. The 1.5 mg/kg group had six mice, and the tumors of two mice disappeared after 8 days; that is, after one administration, the two tumors were almost eliminated. The body weight and tumor volume were measured every two days.
# (§2) Fresh tumors and organs were minced quickly in an ice bath and homogenized in a pre-cooled Dounce Tissue Grinder (WHEATON). The homogenate was dissolved by RIPA with 0.1% PMSF. The protein concentration was determined by a BCA Protein Assay Kit (Beyotime, Shanghai, China). A total of 20–40 μg of proteins were separated by 8–12% SDS-PAGE according to the molecular weight of certain proteins, followed by being transferred onto the polyvinylidene difluoride membrane. Then, the membrane was blocked with 5% fat-free milk for 2 h, followed by incubation with primary antibodies and HRP-conjugated secondary antibodies. Then, the images were snapped by QuickChemi5100.
# [16] = Side effects in 4T1 tumor-bearing mice; format: in vivo
# Protocol: as §1
# Blood samples for the blood cell content tests were collected from the eye socket veins of the mice.
# as §2
# The 5 organs were formalin-fixed for 24 h immediately after the mice were sacrificed, and decalcified for 3.5 h, paraffin-embedded, cut, dewaxed, and hydrated. Some samples were stained with H&E. The pictures in the results were magnified by 400× and the scale bar was 50 µm.
# [17] = rat, in vivo
# [18] = Arsenic content of viscera and tumor by ICP-MS; settings: mouse, in vivo
compound,measurement,setting,value
COc1ccc(C(=O)Nc2ccc([As]3SCCCS3)cc2)cc1 [MAZ2],IC50,[1]; read-out: IC50 Molm 24 h,200 nM
same,IC50,[1]; read-out: IC50 Molm 48 h,100 nM
same,IC50,[2]; read-out: IC50 NB4 24 h,400 nM
same,IC50,[2]; read-out: IC50 NB4 48 h,300 nM
same,IC50,[3]; read-out: IC50 4T1 24 h,800 nM
same,IC50,[3]; read-out: IC50 4T1 48 h,400 nM
same,IC50,[4]; read-out: IC50 HeLa 24 h,400 nM
same,IC50,[4]; read-out: IC50 HeLa 48 h,300 nM
same,IC50,[5]; read-out: IC50 COS-7 24 h,5200 nM
same,IC50,[5]; read-out: IC50 COS-7 48 h,3300 nM
same,IC50,[6]; read-out: IC50 PBMC 24 h,7600 nM
same,IC50,[6]; read-out: IC50 PBMC 48 h,6900 nM
same,IC50,[7],< 1000 nM
same,TrxR activity of the 4T1 cells,[8],sharply reduced activity
same,change of IC50 value after TrxR was knocked down,[9],5.5 fold
same,transcription of the Trx system,[10],decreased the transcription of the Trx system
same,incubation time at which the ROS peak was reached,[11],9 h
same,ROS level,[11]; 0.8 and 1.6 µM,rose sharply in a dosage-dependent manner
same,influence on the GSH content,[12],very little influence
same,MDA content,[13],increased acutely and dosage-dependently
same,apoptosis induction,[14],induced apoptosis in a dosage-dependent manner
same,average tumor weight reduced by,[15]; 1 mg/kg i.p. once a week,30%
same,tumor growth (tumor volume),[15]; 1 mg/kg or 1.5 mg/kg i.p. once a week,completely reverse the growth of tumors and gradually eliminate tumors
same,tumors eliminated,"[15]; 1.5 mg/kg i.p. once a week, after two weeks",two tumors in the mice belonging to the 1.5 mg/kg MAZ2 group were eliminated
same,average tumor weight reduced by,[15]; 1.5 mg/kg i.p. once a week,15%
same,TrxR and Trx content of tumors by western blot,[15]; tumors of treated mice,reduced the TrxR1 content slightly and reduced the Trx1 content by a large amount
same,body weight of the mice,[16]; 1 and 1.5 mg/kg i.p. once a week,no obvious impact on the body weight
same,"blood cell counts (WBC, NEUT, LYMPH, MONO)",[16]; tumor-bearing mice versus normal mice,lowered the counts of blood cells and reversed abnormalities in the hematological system
same,"H&E staining of heart, liver, spleen, lungs, kidneys",[16]; two MAZ2-administered groups,showed healthy organs
same,TrxR content of the liver and spleen,[16]; western blot,no changes
same,blood arsenic content over time,[17],decreased slowly and remained at high levels even after 2 days
same,arsenic content of tumor and viscera,[18],gathered in the tumor instead of the viscera
